Assay results published in US20250171437A1 (Agios Pharmaceuticals,Inc., priority 2022, published 2025).

biological target: T1, human PAH with the R408W mutation (A375 R408W cells) (Homo sapiens, UniProt P00439, R408W); assay: Cell Based Phenylalanine Flux Assay; conditions: A375 R408W cells; 24 hrs with compound, then 20 μM sepiapterin and 800 μM 13C9,15N-Phenylalanine for 4 hours; 13C-Tyrosine by LC-MS; average where tested multiple times
T1 construct: expressed in transfected cells
T1 sequence (P00439 1-452 R408W): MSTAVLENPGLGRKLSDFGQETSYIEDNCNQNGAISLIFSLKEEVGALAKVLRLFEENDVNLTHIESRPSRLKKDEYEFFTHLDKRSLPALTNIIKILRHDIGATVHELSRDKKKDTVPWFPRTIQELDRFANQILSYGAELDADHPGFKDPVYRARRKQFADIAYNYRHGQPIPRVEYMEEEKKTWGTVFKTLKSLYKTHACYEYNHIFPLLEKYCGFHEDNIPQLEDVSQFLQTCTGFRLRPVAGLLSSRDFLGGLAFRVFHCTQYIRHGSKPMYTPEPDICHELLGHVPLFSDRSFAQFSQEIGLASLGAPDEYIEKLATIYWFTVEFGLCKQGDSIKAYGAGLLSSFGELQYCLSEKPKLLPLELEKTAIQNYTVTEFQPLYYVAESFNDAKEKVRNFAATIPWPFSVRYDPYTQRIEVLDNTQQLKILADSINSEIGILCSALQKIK
Method in brief: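 Puromycin-selected A375 line, lentiviral hPAH R408W; cmpd 24 h, 37 °C, 5% CO2, 0.5% DMSO; then 20 μM sepiapterin + 800 μM 13C9,15N-Phe, 4 h; media extracted in 80% MeCN; 13C-Tyr by LC-MS; AC50 from 10-pt curves.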

Row | Compound | AC50 [nM]
1 | Cn1nc(Cl)cc1C(=O)N1CCc2[nH]cnc2[C@@H]1c1nc2cc(F)ccc2o1 [Example 128, (R)-(3-chloro-1-methyl-1H-pyrazol-5-yl)(4-(5-fluorobenzo[d]oxazol-2-yl)-6,7-dihydro-1H-imidazo[4,5-c]pyridin-5(4H)-yl)methanone] | 1000 to 5000
2 | CC(C)(O)c1nc(C(F)(F)F)c(C(=O)N2CCc3[nH]cnc3[C@@H]2c2nc3cccc(F)c3o2)o1 [Example 254, (R)-(4-(7-fluorobenzo[d]oxazol-2-yl)-6,7-dihydro-1H-imidazo[4,5-c]pyridin-5(4H)-yl)(2-(2-hydroxypropan-2-yl)-4-(trifluoromethyl)oxazol-5-yl)methanone] | ≤ 500
3 | Cn1nc(C(F)F)nc1C(=O)N1CCc2[nH]cnc2[C@@H]1c1nc2cc(F)cc(F)c2o1 [Example 578, (R)-(4-(5,7-difluorobenzo[d]oxazol-2-yl)-6,7-dihydro-1H-imidazo[4,5-c]pyridin-5(4H)-yl)(3-(difluoromethyl)-1-methyl-1H-1,2,4-triazol-5-yl)methanone] | 1000 to 5000
4 | COc1cc(F)c2oc([C@H]3c4nc[nH]c4CCN3C(=O)c3ocnc3C(F)F)nc2c1 [Example 664, (R)-(4-(difluoromethyl)oxazol-5-yl)(4-(7-fluoro-5-methoxybenzo[d]oxazol-2-yl)-6,7-dihydro-1H-imidazo[4,5-c]pyridin-5(4H)-yl)methanone] | ≤ 500
5 | Cc1cc(F)ccc1-c1nnc(C(=O)N2CCc3[nH]cnc3[C@H]2c2nc3cc(F)ccc3o2)o1 [Example 77, (S)-(5-(4-fluoro-2-methylphenyl)-1,3,4-oxadiazol-2-yl)(4-(5-fluorobenzo[d]oxazol-2-yl)-6,7-dihydro-1H-imidazo[4,5-c]pyridin-5(4H)-yl)methanone] | 500 to 1000
6 | O=C(c1cnco1)N1CCc2[nH]cnc2[C@@H]1c1nc2cc(F)cc(F)c2o1 [Example 576, (R)-(4-(5,7-difluorobenzo[d]oxazol-2-yl)-6,7-dihydro-1H-imidazo[4,5-c]pyridin-5(4H)-yl)(oxazol-5-yl)methanone] | 1000 to 5000
7 | O=C(c1nnc(-c2ccccn2)o1)N1CCc2[nH]cnc2[C@H]1c1nc2ccc(F)cc2o1 [Example 303, (S)-(4-(6-fluorobenzo[d]oxazol-2-yl)-6,7-dihydro-1H-imidazo[4,5-c]pyridin-5(4H)-yl)(5-(pyridin-2-yl)-1,3,4-oxadiazol-2-yl)methanone] | ≤ 500
8 | Cc1ccc2oc([C@H]3c4nc[nH]c4CCN3C(=O)c3oc(-c4cnn(C)c4)nc3C(F)F)nc2c1 [Example 772, (R)-(4-(difluoromethyl)-2-(1-methyl-1H-pyrazol-4-yl)oxazol-5-yl)(4-(5-methylbenzo[d]oxazol-2-yl)-6,7-dihydro-1H-imidazo[4,5-c]pyridin-5(4H)-yl)methanone] | 500 to 1000
9 | O=C(c1nnc(-c2ncccc2F)o1)N1CCc2[nH]cnc2[C@H]1c1nc2ccccc2o1 [Example 833, (S)-(4-(benzo[d]oxazol-2-yl)-6,7-dihydro-1H-imidazo[4,5-c]pyridin-5(4H)-yl)(5-(3-fluoropyridin-2-yl)-1,3,4-oxadiazol-2-yl)methanone] | ≤ 500
10 | COc1ccc2c(C(=O)N3CCc4[nH]cnc4[C@@H]3c3nc4cccc(F)c4o3)cnn2c1 [Example 326, (R)-(4-(7-fluorobenzo[d]oxazol-2-yl)-6,7-dihydro-1H-imidazo[4,5-c]pyridin-5(4H)-yl)(6-methoxypyrazolo[1,5-a]pyridin-3-yl)methanone] | 1000 to 5000

same assay, conditions: A375 cells expressing R408W PAH; 24 hrs with compound, then 20 μM sepiapterin and 800 μM 13C9,15N-Phenylalanine for 4 hours; 13C-Tyrosine by LC-MS; average where tested multiple times

Row | Compound | AC50 [nM]
11 | O=C(c1nnc(-c2cc[nH]n2)o1)N1CCc2[nH]cnc2C1c1nc2cc(F)ccc2o1 (stereo not shown) | 1000 to 5000
12 | O=C(c1cncs1)N1CCc2[nH]cnc2C1c1nc2ccc(Br)cc2o1 (stereo not shown) | ≥ 5000
13 | O=C(c1cnn2cc(CN3CCC(F)(F)C3)ccc12)N1CCc2[nH]cnc2[C@H]1c1nc2cc(F)ccc2o1 (single isomer, unassigned) | 1000 to 5000
14 | CC(C)(O)c1noc(C(=O)N2CCc3[nH]cnc3C2c2nc3ccc(F)cc3o2)n1 (stereo not shown) | ≥ 5000
15 | CC(C)(O)c1nc(C(F)F)c(CN2CCc3[nH]cnc3C2c2nc3cc(F)ccc3o2)o1 (stereo not shown) | ≥ 5000
16 | CC(C)(O)c1nc(C(=O)N2CCc3[nH]cnc3C2c2nc3ccc(F)cc3o2)no1 (stereo not shown) | ≥ 5000
